Measured values taken from ChEMBL document CHEMBL5346961, “Discovery and Evaluation of 3-Quinoxalin Urea Derivatives as Potent, Selective, and Orally Available ATM Inhibitors Combined with Chemotherapy for the Treatment of Cancer via Goal-Oriented Molecule Generation and Virtual Screening” (J Med Chem, 2023).

target: Serine/threonine-protein kinase ATR (Homo sapiens, UniProt Q13535); assay: Inhibition of ATR (unknown origin) assessed as remaining activity at 1 uM in presence of [gamma33P-ATP] by radiometric assay; details: not given

SMILES	Activity [%]
CN(C)CCCOc1ccc(-c2ccc3ncc(N(C)C(=O)NC4CC4)nc3c2)cn1	114
CCCCNC(=O)N(C)c1cnc2ccc(-c3ccc(OCCCN(C)C)nc3)cc2n1	105
CCNC(=O)N(C)c1cnc2ccc(-c3ccc(OCCCN(C)C)nc3)cc2n1	104
CN(C)CCCOc1ccc(-c2ccc3ncc(N(C)C(=O)NC4CCCCC4)nc3c2)cn1	94
C=CCNC(=O)Nc1cnc2ccc(-c3ccc(OCCCN(C)C)nc3)cc2n1	101
CN(C)CCCOc1ccc(-c2ccc3ncc(N(C)C(=O)Nc4ccccc4Cl)nc3c2)cn1	102
CCCNC(=O)Nc1cnc2ccc(-c3ccc(OCCCN(C)C)nc3)cc2n1	99
CN(C)CCCOc1ccc(-c2ccc3ncc(NC(=O)NC4CCCC4)nc3c2)cn1	98
CN(C)CCCOc1ccc(-c2ccc3ncc(N(C)C(=O)NC4CCCC4)nc3c2)cn1	100

The next lines start with the values.

Activity [%]	SMILES
109	CN(C)CCCOc1ccc(-c2ccc3ncc(N(C)C(=O)Nc4cccc(C(F)(F)F)c4)nc3c2)cn1
98	CC(C)NC(=O)Nc1cnc2ccc(-c3ccc(OCCCN(C)C)nc3)cc2n1
101	CN(C)CCCOc1ccc(-c2ccc3ncc(N(C)C(=O)N[C@]45C[C@@H]6C[C@H](C[C@@H](C6)C4)C5)nc3c2)cn1
103	C=CCNC(=O)N(C)c1cnc2ccc(-c3ccc(OCCCN(C)C)nc3)cc2n1
102	CCCNC(=O)N(C)c1cnc2ccc(-c3ccc(OCCCN(C)C)nc3)cc2n1
120	COc1ccc(NC(=O)N(C)c2cnc3ccc(-c4ccc(OCCCN(C)C)nc4)cc3n2)cc1

target: T1, Serine-protein kinase ATM (Homo sapiens, UniProt Q13315); assay: Inhibition of ATM (unknown origin) assessed as remaining activity at 1 uM preincubated with compound for 30 mins followed by substrate addition and measured after 2 hrs by HTRF method relative to control; details: time 2.5 hrs
T1 sequence (Q13315 whole entry): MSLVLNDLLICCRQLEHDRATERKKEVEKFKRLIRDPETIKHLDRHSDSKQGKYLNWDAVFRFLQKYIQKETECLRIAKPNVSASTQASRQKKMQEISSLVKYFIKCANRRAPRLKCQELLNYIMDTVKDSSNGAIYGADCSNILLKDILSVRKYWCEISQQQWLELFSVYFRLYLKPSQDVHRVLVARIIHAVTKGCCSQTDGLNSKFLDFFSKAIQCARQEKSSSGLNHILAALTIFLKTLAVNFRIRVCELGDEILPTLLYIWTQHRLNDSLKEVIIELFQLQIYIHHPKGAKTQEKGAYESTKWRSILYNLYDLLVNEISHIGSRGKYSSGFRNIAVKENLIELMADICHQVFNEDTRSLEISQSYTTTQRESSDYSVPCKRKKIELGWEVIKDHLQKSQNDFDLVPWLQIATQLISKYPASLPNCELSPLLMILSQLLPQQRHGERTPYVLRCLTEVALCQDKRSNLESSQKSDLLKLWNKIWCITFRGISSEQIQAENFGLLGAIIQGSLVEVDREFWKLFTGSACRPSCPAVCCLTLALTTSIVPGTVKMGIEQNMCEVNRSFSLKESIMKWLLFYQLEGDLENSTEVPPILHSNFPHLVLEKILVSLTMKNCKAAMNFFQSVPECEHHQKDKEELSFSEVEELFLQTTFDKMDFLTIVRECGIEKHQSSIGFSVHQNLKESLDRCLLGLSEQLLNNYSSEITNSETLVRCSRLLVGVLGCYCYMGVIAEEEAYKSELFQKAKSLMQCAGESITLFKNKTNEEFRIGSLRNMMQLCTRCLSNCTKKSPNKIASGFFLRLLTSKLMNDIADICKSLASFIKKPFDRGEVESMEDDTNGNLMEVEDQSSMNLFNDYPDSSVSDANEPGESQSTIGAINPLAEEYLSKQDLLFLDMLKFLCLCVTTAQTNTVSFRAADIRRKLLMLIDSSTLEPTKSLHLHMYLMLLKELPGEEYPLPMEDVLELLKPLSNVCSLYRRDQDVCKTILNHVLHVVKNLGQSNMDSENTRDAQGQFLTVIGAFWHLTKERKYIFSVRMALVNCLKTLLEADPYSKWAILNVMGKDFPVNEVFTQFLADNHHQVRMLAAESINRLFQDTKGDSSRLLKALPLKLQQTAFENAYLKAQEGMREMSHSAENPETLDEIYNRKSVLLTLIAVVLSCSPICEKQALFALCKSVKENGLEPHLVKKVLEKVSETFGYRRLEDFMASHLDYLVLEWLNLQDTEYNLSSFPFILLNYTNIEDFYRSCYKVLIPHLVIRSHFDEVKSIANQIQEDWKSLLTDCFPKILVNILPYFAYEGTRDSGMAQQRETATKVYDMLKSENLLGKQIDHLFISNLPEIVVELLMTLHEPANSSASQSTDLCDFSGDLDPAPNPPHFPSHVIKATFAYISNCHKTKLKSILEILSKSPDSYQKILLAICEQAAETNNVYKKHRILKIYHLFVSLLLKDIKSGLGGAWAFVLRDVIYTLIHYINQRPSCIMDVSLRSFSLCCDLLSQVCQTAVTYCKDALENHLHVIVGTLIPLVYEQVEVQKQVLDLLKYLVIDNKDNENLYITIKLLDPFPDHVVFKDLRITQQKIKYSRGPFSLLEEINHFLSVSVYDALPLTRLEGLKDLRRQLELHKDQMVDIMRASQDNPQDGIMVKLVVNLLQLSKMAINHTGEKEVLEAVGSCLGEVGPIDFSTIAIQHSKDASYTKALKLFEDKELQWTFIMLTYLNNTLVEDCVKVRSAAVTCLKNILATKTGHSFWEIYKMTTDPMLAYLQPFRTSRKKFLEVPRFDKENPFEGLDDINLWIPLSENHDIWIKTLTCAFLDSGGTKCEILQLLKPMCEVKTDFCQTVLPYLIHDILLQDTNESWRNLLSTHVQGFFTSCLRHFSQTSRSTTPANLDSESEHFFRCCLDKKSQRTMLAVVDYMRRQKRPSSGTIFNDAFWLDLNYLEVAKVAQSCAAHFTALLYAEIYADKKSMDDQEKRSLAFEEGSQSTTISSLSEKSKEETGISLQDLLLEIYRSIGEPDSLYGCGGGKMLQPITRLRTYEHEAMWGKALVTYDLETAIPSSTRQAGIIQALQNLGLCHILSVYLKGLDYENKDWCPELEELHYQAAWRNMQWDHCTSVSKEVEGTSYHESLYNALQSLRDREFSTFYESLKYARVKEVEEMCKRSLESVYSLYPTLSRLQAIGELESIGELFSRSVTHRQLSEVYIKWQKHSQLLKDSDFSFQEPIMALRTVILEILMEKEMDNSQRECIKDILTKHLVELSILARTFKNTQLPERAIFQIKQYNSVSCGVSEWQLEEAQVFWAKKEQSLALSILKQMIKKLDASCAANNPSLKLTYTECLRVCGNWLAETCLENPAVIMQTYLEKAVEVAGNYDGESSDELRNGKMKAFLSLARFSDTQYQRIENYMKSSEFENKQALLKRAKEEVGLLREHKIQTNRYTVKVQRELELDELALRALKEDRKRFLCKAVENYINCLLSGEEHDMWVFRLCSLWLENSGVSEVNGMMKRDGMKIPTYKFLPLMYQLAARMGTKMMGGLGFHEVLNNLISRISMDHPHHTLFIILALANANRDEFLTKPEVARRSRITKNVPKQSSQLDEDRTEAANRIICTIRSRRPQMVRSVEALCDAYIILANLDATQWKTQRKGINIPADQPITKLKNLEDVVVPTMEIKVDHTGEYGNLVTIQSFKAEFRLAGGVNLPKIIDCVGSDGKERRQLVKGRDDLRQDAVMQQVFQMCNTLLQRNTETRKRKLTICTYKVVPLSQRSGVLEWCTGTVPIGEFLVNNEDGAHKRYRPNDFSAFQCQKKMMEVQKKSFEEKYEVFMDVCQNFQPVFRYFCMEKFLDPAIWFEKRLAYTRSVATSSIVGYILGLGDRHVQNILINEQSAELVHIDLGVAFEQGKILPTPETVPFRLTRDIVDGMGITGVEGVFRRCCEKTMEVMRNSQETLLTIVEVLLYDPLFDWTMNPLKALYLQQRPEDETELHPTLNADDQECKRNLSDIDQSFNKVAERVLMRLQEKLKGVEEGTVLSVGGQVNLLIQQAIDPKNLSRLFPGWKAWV

Activity [%]	SMILES
-4	CC(C)NC(=O)Nc1cnc2ccc(-c3ccc(OCCCN(C)C)nc3)cc2n1
-3	C=CCNC(=O)Nc1cnc2ccc(-c3ccc(OCCCN(C)C)nc3)cc2n1
-4	CCCNC(=O)Nc1cnc2ccc(-c3ccc(OCCCN(C)C)nc3)cc2n1
-5	CN(C)CCCOc1ccc(-c2ccc3ncc(NC(=O)NC4CCCC4)nc3c2)cn1

test system: not listed separately; assay: Metabolic stability in human liver microsomes assessed as clearance at 1 uM in presence of NADPH-regenerating system by LC-MS/MS analysis; format: ADME, Microsome; details: not given

SMILES	CLH [mL/min/g]
CN(C)CCCOc1ccc(-c2ccc3ncc(N(C)C(=O)NC4CC4)nc3c2)cn1	39
CCCCNC(=O)N(C)c1cnc2ccc(-c3ccc(OCCCN(C)C)nc3)cc2n1	64
CCNC(=O)N(C)c1cnc2ccc(-c3ccc(OCCCN(C)C)nc3)cc2n1	127
CN(C)CCCOc1ccc(-c2ccc3ncc(N(C)C(=O)NC4CCCCC4)nc3c2)cn1	94
C=CCNC(=O)Nc1cnc2ccc(-c3ccc(OCCCN(C)C)nc3)cc2n1	151
CN(C)CCCOc1ccc(-c2ccc3ncc(N(C)C(=O)Nc4ccccc4Cl)nc3c2)cn1	43
CCCNC(=O)Nc1cnc2ccc(-c3ccc(OCCCN(C)C)nc3)cc2n1	120
CN(C)CCCOc1ccc(-c2ccc3ncc(NC(=O)NC4CCCC4)nc3c2)cn1	144
CN(C)CCCOc1ccc(-c2ccc3ncc(N(C)C(=O)NC4CCCC4)nc3c2)cn1	64

Continued, values first:

CLH [mL/min/g]	SMILES
94	CC(C)NC(=O)Nc1cnc2ccc(-c3ccc(OCCCN(C)C)nc3)cc2n1
19	CN(C)CCCOc1ccc(-c2ccc3ncc(N(C)C(=O)N[C@]45C[C@@H]6C[C@H](C[C@@H](C6)C4)C5)nc3c2)cn1
55	C=CCNC(=O)N(C)c1cnc2ccc(-c3ccc(OCCCN(C)C)nc3)cc2n1
84	CCCNC(=O)N(C)c1cnc2ccc(-c3ccc(OCCCN(C)C)nc3)cc2n1
45	COc1ccc(NC(=O)N(C)c2cnc3ccc(-c4ccc(OCCCN(C)C)nc4)cc3n2)cc1

test system: not listed separately; assay: Metabolic stability in human liver microsomes assessed as half life at 1 uM in presence of NADPH-regenerating system by LC-MS/MS analysis; format: ADME, Microsome; details: not given

SMILES	half-life at 1 µM [min]
CN(C)CCCOc1ccc(-c2ccc3ncc(N(C)C(=O)NC4CC4)nc3c2)cn1	41
CCCCNC(=O)N(C)c1cnc2ccc(-c3ccc(OCCCN(C)C)nc3)cc2n1	22
CCNC(=O)N(C)c1cnc2ccc(-c3ccc(OCCCN(C)C)nc3)cc2n1	11
CN(C)CCCOc1ccc(-c2ccc3ncc(N(C)C(=O)NC4CCCCC4)nc3c2)cn1	15
C=CCNC(=O)Nc1cnc2ccc(-c3ccc(OCCCN(C)C)nc3)cc2n1	9
CN(C)CCCOc1ccc(-c2ccc3ncc(N(C)C(=O)Nc4ccccc4Cl)nc3c2)cn1	33
CCCNC(=O)Nc1cnc2ccc(-c3ccc(OCCCN(C)C)nc3)cc2n1	12
CN(C)CCCOc1ccc(-c2ccc3ncc(NC(=O)NC4CCCC4)nc3c2)cn1	10
CN(C)CCCOc1ccc(-c2ccc3ncc(N(C)C(=O)NC4CCCC4)nc3c2)cn1	22

Results, then the compound that gave them:

half-life at 1 µM [min]	SMILES
15	CC(C)NC(=O)Nc1cnc2ccc(-c3ccc(OCCCN(C)C)nc3)cc2n1
73	CN(C)CCCOc1ccc(-c2ccc3ncc(N(C)C(=O)N[C@]45C[C@@H]6C[C@H](C[C@@H](C6)C4)C5)nc3c2)cn1
25	C=CCNC(=O)N(C)c1cnc2ccc(-c3ccc(OCCCN(C)C)nc3)cc2n1
16	CCCNC(=O)N(C)c1cnc2ccc(-c3ccc(OCCCN(C)C)nc3)cc2n1
51	COc1ccc(NC(=O)N(C)c2cnc3ccc(-c4ccc(OCCCN(C)C)nc4)cc3n2)cc1

target: T1, Serine-protein kinase ATM; assay: Inhibition of ATM (unknown origin) assessed as remaining activity at 0.01 uM preincubated with compound for 30 mins followed by substrate addition and measured after 2 hrs by HTRF method relative to control; details: time 2.5 hrs

SMILES	Activity [%]
CN(C)CCCOc1ccc(-c2ccc3ncc(N(C)C(=O)NC4CC4)nc3c2)cn1	17
CCCCNC(=O)N(C)c1cnc2ccc(-c3ccc(OCCCN(C)C)nc3)cc2n1	3
CCNC(=O)N(C)c1cnc2ccc(-c3ccc(OCCCN(C)C)nc3)cc2n1	33
CN(C)CCCOc1ccc(-c2ccc3ncc(N(C)C(=O)NC4CCCCC4)nc3c2)cn1	-1
CN(C)CCCOc1ccc(-c2ccc3ncc(N(C)C(=O)Nc4ccccc4Cl)nc3c2)cn1	3
CN(C)CCCOc1ccc(-c2ccc3ncc(N(C)C(=O)NC4CCCC4)nc3c2)cn1	2

Now from value to compound:

Activity [%]	SMILES
39	CN(C)CCCOc1ccc(-c2ccc3ncc(N(C)C(=O)Nc4cccc(C(F)(F)F)c4)nc3c2)cn1
37	CN(C)CCCOc1ccc(-c2ccc3ncc(N(C)C(=O)N[C@]45C[C@@H]6C[C@H](C[C@@H](C6)C4)C5)nc3c2)cn1
11	C=CCNC(=O)N(C)c1cnc2ccc(-c3ccc(OCCCN(C)C)nc3)cc2n1
12	CCCNC(=O)N(C)c1cnc2ccc(-c3ccc(OCCCN(C)C)nc3)cc2n1
22	COc1ccc(NC(=O)N(C)c2cnc3ccc(-c4ccc(OCCCN(C)C)nc4)cc3n2)cc1

target: T1, Serine-protein kinase ATM; assay: Inhibition of ATM (unknown origin) preincubated with compound for 30 mins followed by substrate addition and measured after 2 hrs by HTRF method; details: not given

SMILES	IC50 [nM]
CN(C)CCCOc1ccc(-c2ccc3ncc(N(C)C(=O)NC4CC4)nc3c2)cn1	8
CN(C)CCCOc1ccc(-c2ccc3ncc(N(C)C(=O)N[C@]45C[C@@H]6C[C@H](C[C@@H](C6)C4)C5)nc3c2)cn1	8
CCCCNC(=O)N(C)c1cnc2ccc(-c3ccc(OCCCN(C)C)nc3)cc2n1	0.8
CCNC(=O)N(C)c1cnc2ccc(-c3ccc(OCCCN(C)C)nc3)cc2n1	6
CN(C)CCCOc1ccc(-c2ccc3ncc(N(C)C(=O)NC4CCCCC4)nc3c2)cn1	0.9
C=CCNC(=O)N(C)c1cnc2ccc(-c3ccc(OCCCN(C)C)nc3)cc2n1	2
CN(C)CCCOc1ccc(-c2ccc3ncc(N(C)C(=O)Nc4ccccc4Cl)nc3c2)cn1	0.9
CCCNC(=O)N(C)c1cnc2ccc(-c3ccc(OCCCN(C)C)nc3)cc2n1	3
CN(C)CCCOc1ccc(-c2ccc3ncc(N(C)C(=O)NC4CCCC4)nc3c2)cn1	1
COc1ccc(NC(=O)N(C)c2cnc3ccc(-c4ccc(OCCCN(C)C)nc4)cc3n2)cc1	3

test system: HCT-116; assay: Inhibition of colony formation in human HCT-116 cells at 0.01 uM preincubated for 1 hr followed by exposure to 2 Gy gamma irradiation and measured after 1 week by crystal violet staining based […] assay relative to control; format: functional; details: HCT-116, light or radiation study, time 169 hrs

SMILES	inhibition at 0.01 µM [%]
CN(C)CCCOc1ccc(-c2ccc3ncc(N(C)C(=O)NC4CC4)nc3c2)cn1	43.9
CN(C)CCCOc1ccc(-c2ccc3ncc(N(C)C(=O)Nc4cccc(C(F)(F)F)c4)nc3c2)cn1	-11.9
CN(C)CCCOc1ccc(-c2ccc3ncc(N(C)C(=O)N[C@]45C[C@@H]6C[C@H](C[C@@H](C6)C4)C5)nc3c2)cn1	-3.67
CCCCNC(=O)N(C)c1cnc2ccc(-c3ccc(OCCCN(C)C)nc3)cc2n1	92.7
CCNC(=O)N(C)c1cnc2ccc(-c3ccc(OCCCN(C)C)nc3)cc2n1	57.8
CN(C)CCCOc1ccc(-c2ccc3ncc(N(C)C(=O)NC4CCCCC4)nc3c2)cn1	99.6
C=CCNC(=O)N(C)c1cnc2ccc(-c3ccc(OCCCN(C)C)nc3)cc2n1	49.7
CN(C)CCCOc1ccc(-c2ccc3ncc(N(C)C(=O)Nc4ccccc4Cl)nc3c2)cn1	84.4
CCCNC(=O)N(C)c1cnc2ccc(-c3ccc(OCCCN(C)C)nc3)cc2n1	77.4
CN(C)CCCOc1ccc(-c2ccc3ncc(N(C)C(=O)NC4CCCC4)nc3c2)cn1	91.9
COc1ccc(NC(=O)N(C)c2cnc3ccc(-c4ccc(OCCCN(C)C)nc4)cc3n2)cc1	-0.75

test system: HCT-116; assay: Inhibition of colony formation in human HCT-116 cells preincubated for 1 hr followed by exposure to 2 Gy gamma irradiation and measured after 1 week by crystal violet staining based […] assay; format: functional, cell-based; details: HCT-116, light or radiation study

SMILES	IC50 [nM]
CN(C)CCCOc1ccc(-c2ccc3ncc(N(C)C(=O)NC4CC4)nc3c2)cn1	15.3
CCCCNC(=O)N(C)c1cnc2ccc(-c3ccc(OCCCN(C)C)nc3)cc2n1	7.65
CN(C)CCCOc1ccc(-c2ccc3ncc(N(C)C(=O)NC4CCCCC4)nc3c2)cn1	0.54
C=CCNC(=O)N(C)c1cnc2ccc(-c3ccc(OCCCN(C)C)nc3)cc2n1	12.2
CN(C)CCCOc1ccc(-c2ccc3ncc(N(C)C(=O)Nc4ccccc4Cl)nc3c2)cn1	4.35
CN(C)CCCOc1ccc(-c2ccc3ncc(N(C)C(=O)NC4CCCC4)nc3c2)cn1	1.56

test system: HCT-116; assay: Antiproliferative activity against human HCT-116 cells assessed as cell survival at 1 uM incubated for 6 days by MTT assay relative to control; format: functional; details: HCT-116, 144 h, time 6 day, read-out: Survival

SMILES	viability at 1 µM [%]
CN(C)CCCOc1ccc(-c2ccc3ncc(N(C)C(=O)NC4CC4)nc3c2)cn1	> 83
CCCCNC(=O)N(C)c1cnc2ccc(-c3ccc(OCCCN(C)C)nc3)cc2n1	> 83
CN(C)CCCOc1ccc(-c2ccc3ncc(N(C)C(=O)NC4CCCCC4)nc3c2)cn1	> 83
CN(C)CCCOc1ccc(-c2ccc3ncc(N(C)C(=O)Nc4ccccc4Cl)nc3c2)cn1	> 83
CN(C)CCCOc1ccc(-c2ccc3ncc(N(C)C(=O)NC4CCCC4)nc3c2)cn1	> 83
